Assay results taken from patent US20070203158A1, “Fungicidal Mixtures” (BASF AKTIENGESELLSCHAFT, priority 2004, published 2007).

Test system: Plasmopara viticola
Experiment: Activity against peronospora of grapevines caused by Plasmopara viticola (protective spray on potted vines)
Type: in vivo
Details: individual active compound, untreated control 89% infection
Experimental: The active compounds, separately or jointly, were prepared as a stock solution comprising 0.25% by weight of active compound in acetone or DMSO. 1% by weight of the emulsifier Uniperol® EL (wetting agent having emulsifying and dispersant action based on ethoxylated alkylphenols) was added to this solution, and the mixture was diluted with water to the desired concentration.
Leaves of potted vines were sprayed to runoff point with an aqueous suspension having the concentration of active compound stated below. The next day, the undersides of the leaves were inoculated with an aqueous sporangia suspension of Plasmopara viticola. The grapevines were then initially placed in a water-vapor-saturated chamber at 24° C. for 48 hours and then in a greenhouse at 20-30° C. for 5 days. After this period of time, the plants were again placed in a humid chamber for 16 hours to promote sporangiophore eruption. The extent of the development of the disease on the undersides of the leaves was then determined visually.
The visually determined percentages of infected leaf areas were converted into efficacies in % of the untreated control:
The efficacy (E) is calculated as follows using Abbot's formula: E=(1−α/β)·100 • α corresponds to the fungicidal infection of the treated plants in % and • β corresponds to the fungicidal infection of the untreated (control) plants in %
An efficacy of 0 means that the infection level of the treated plants corresponds to that of the untreated control plants; an efficacy of 100 means that the treated plants are not infected.
The expected efficacies of mixtures of active compounds were determined using Colby's formula (Colby, S. R. “Calculating synergistic and antagonistic responses of herbicide combinations”, Weeds, 15, 20-22, 1967) and compared with the observed efficacies.
Colby's formula: E=x+y−x·y/100 • E expected efficacy, expressed in % of the untreated control, when using the mixture of the active compounds A and B at the concentrations a and b • x efficacy, expressed in % of the untreated control, when using the active compound A at the concentration a
y efficacy, expressed in % of the untreated control, when using the active compound B at the concentration b

| Structure (SMILES) | Efficacy in % of the untreated control (1 ppm in the spray liquor) [%] | Efficacy in % of the untreated control (4 ppm in the spray liquor) [%] |
| --- | --- | --- |
| CC1CCN(c2c(-c3c(F)cc(F)cc3F)c(Cl)nc3ncnn23)CC1 [compound I, 5-chloro-7-(4-methylpiperidin-1-yl)-6-(2,4,6-trifluorophenyl)-[1,2,4]tri-azolo[1,5-a]pyrimidine] | 0 | 33 |
| CO/C=C(/C(=O)OC)c1ccccc1COc1cccc(C(F)(F)F)n1 [compound II, methyl 3-methoxy-2-[2-(6-trifluoromethylpyridin-2-yloxymethyl)phenyl]acrylate] | 33 | 66 |
